Here are results for 34 molecules from ChEMBL document CHEMBL4706697, “Structure-based designing and synthesis of 2-phenylchromone derivatives as potent tyrosinase inhibitors: In vitro and in silico studies” (Bioorg Med Chem, 2021).

SMILES strings stand for the structures.

In one assay the target is T1, Mushroom tyrosinase (Agaricus bisporus, UniProt O42713+Q00024+C7FF04+C7FF05). The assay is described as follows: Inhibition of mushroom tyrosinase using L-Dopa as substrate preincubated for 10 mins followed by substrate addition and measured after 20 mins.
Consider `O=c1c(O)c(-c2ccc(O)cc2)oc2ccccc12`, for which the IC50 stood at 0.23 µM. `COc1ccc(-c2oc3cc(Br)cc(Br)c3c(=O)c2O)cc1OC` gave a half-inhibitory concentration (IC50) of 0.093 µg/mL. On the same count and under the same terms, in the case of `CN(C)c1ccc(-c2cc(=O)c3c(Br)cc(Br)cc3o2)cc1` it was 0.57 µg/mL. The molecule `O=c1c(O)c(-c2ccc(Cl)cc2)oc2cc(Br)cc(Br)c12` returned an IC50 of 0.71 µg/mL.

In turn, `O=C(O)c1ccc(-c2cc(=O)c3c(Br)cc(Br)cc3o2)cc1` came in with a concentration for half-maximal inhibition (IC50) of 9.7 µg/mL. Molecule `O=c1cc(-c2cccc3ccccc23)oc2cc(Br)cc(Br)c12` gave an IC50 of 3.41 µg/mL. Regarding `Cc1ccc(S(=O)(=O)n2cc(-c3oc4cc(Br)cc(Br)c4c(=O)c3O)c3ccccc32)cc1`, the IC50 is 8.175 µg/mL.

Take `O=C(O)c1ccc(-c2oc3cc(Br)cc(Br)c3c(=O)c2O)cc1`: the IC50 stood at 4.26 µg/mL. Turning to `O=c1cc(-c2ccco2)oc2cc(Br)cc(Br)c12`, the IC50 turned out to be 2.07 µg/mL. In turn, `O=c1c(O)c(-c2ccco2)oc2cc(Br)cc(Br)c12` registered an IC50 of 2.5 µg/mL. `Cc1ccc(-c2cc(=O)c3c(Br)cc(Br)cc3o2)c(C)c1`: the IC50 worked out at 11.33 µg/mL.

Take `O=c1c(O)c(-c2cccc3ccccc23)oc2cc(Br)cc(Br)c12`: the concentration for half-maximal inhibition (IC50) is 0.564 µg/mL. Molecule `O=c1cc(-c2ccc(F)cc2)oc2cc(Br)cc(Br)c12` displayed a half-maximal inhibitory concentration (IC50) of 20.5 µg/mL. As to `COc1ccc(-c2cc(=O)c3c(Br)cc(Br)cc3o2)cc1OC`, the IC50 is 0.49 µg/mL. In turn, `O=c1cc(-c2c[nH]c3ccccc23)oc2cc(Br)cc(Br)c12` gave an IC50 of 0.22 µg/mL.

On to `O=c1c(O)c(-c2cccs2)oc2cc(Br)cc(Br)c12`, for which the IC50 worked out at 3.01 µg/mL. As for `Cc1ccc(S(=O)(=O)n2cc(-c3cc(=O)c4c(Br)cc(Br)cc4o3)c3ccccc32)cc1`, the half-maximal inhibitory concentration (IC50) came out at 22.22 µg/mL. `O=c1cc(-c2ccc(Cl)cc2)oc2cc(Br)cc(Br)c12` displayed an IC50 of 4.2 µg/mL. The molecule `CN(C)c1ccc(-c2oc3cc(Br)cc(Br)c3c(=O)c2O)cc1` came in with a 50% inhibitory concentration (IC50) of 0.5 µg/mL. As for `Cc1ccc(-c2cc(=O)c3c(Br)cc(Br)cc3o2)cc1`, the concentration for half-maximal inhibition (IC50) came to 7.2 µg/mL. On the same count and under the same terms, then `O=c1c(O)c(-c2ccc(F)cc2)oc2cc(Br)cc(Br)c12`, with 2.36 µg/mL; and `Cc1ccc(-c2oc3cc(Br)cc(Br)c3c(=O)c2O)c(C)c1`, with 7.57 µg/mL; and `O=c1cc(-c2cccs2)oc2cc(Br)cc(Br)c12`, with 0.68 µg/mL. On the same count and under the same terms, then `O=c1cc(-c2ccc([N+](=O)[O-])cc2)oc2cc(Br)cc(Br)c12`, with 0.27 µg/mL; and `O=c1cc(-c2cccc([N+](=O)[O-])c2)oc2cc(Br)cc(Br)c12`, with 3.28 µg/mL. `O=c1c(O)c(-c2ccc([N+](=O)[O-])cc2)oc2cc(Br)cc(Br)c12` displayed an IC50 of 0.27 µg/mL. In turn, `Cc1ccc(-c2oc3cc(Br)cc(Br)c3c(=O)c2O)cc1` had an IC50 of 0.126 µg/mL. For `O=c1c(O)c(-c2c[nH]c3ccccc23)oc2cc(Br)cc(Br)c12`, the half-inhibitory concentration (IC50) was determined as 23.58 µg/mL. The same measure, in the same setting: in the case of `O=c1c(O)c(-c2cccc([N+](=O)[O-])c2)oc2cc(Br)cc(Br)c12` it was 0.15 µg/mL.

The next assay deals with T1, Mushroom tyrosinase. As to the kind of experiment: Inhibition of mushroom tyrosinase using L-Dopa as substrate […].
Regarding `O=C(Nc1cccc(Cl)c1)Nc1ccc2c(c1)S(=O)(=O)NC2=O`, the IC50 is 5.85 µM.

`COc1ccc(/C=C2\NC(=S)NC2=O)c(OC)c1`: the IC50 worked out at 1.07 µM. Regarding `O=C(O)S[C@H]1N=N[C@@H](NC(=S)Nc2cccc(C(F)(F)F)c2)S1`, the IC50 was determined as 6.13 µM. Take `CCN1CCN(CC(=O)Nc2ccc3oc(-c4ccc(C(C)(C)C)cc4)nc3c2)CC1`: the IC50 was 8.14 µM.

For the next assay, the target named is T1, Mushroom tyrosinase. The assay is described as follows: Inhibition of mushroom tyrosinase.
The molecule `C=CCc1ccc(OC(=O)COC(=O)/C=C/c2ccc(O)cc2)c(OC)c1` returned an IC50 of 3 µM.
